Test system: PBMC (polyclonal gluten-specific T cells) of paediatric and adult CD patients
Experiment: IFN-γ ELISpot of PBMC after 3 day oral wheat challenge (SFU, % of maximal peptide response, dominance scores, EC50; Examples 5-6)
Assay type: cell-based, human
Conditions: for Cross-reactive T cell response: following wheat challenge; for IFN-γ ELISpot response: after oral wheat challenge
[1] = subject I (3-5yrs/6-10yrs part)
[2] = subject J (3-5yrs/6-10yrs part)
[3] = subject K (3-5yrs/6-10yrs part)
[4] = subject V (3-5yrs/6-10yrs part)
[5] = subject W (3-5yrs/6-10yrs part)
[6] = subject Y (3-5yrs/6-10yrs part)
[7] = subject five (3-5yrs/6-10yrs part)
[8] = subject seven (3-5yrs/6-10yrs part)
[9] = subject six (3-5yrs/6-10yrs part)
[10] = subject ten (3-5yrs/6-10yrs part)
[11] = subject two (3-5yrs/6-10yrs part)

Sequence: QPEQPFPLQPEQPVP
- Cross-reactive T cell response (subject A, 11-17yrs): 1 SFU
- Cross-reactive T cell response (subject D, 11-17yrs): 0 SFU
- Cross-reactive T cell response (subject E, 11-17yrs): 9 SFU
- Significant response as a percentage of maximal peptide SFU (subject F, 11-17yrs): ′ (11-20% = ′)
- Cross-reactive T cell response (subject F, 11-17yrs): 27 SFU
- Cross-reactive T cell response (subject G, 11-17yrs): 2 SFU
- Cross-reactive T cell response (subject H): 3 SFU
- Cross-reactive T cell response [1]: 1 SFU
- Significant response as a percentage of maximal peptide SFU (subject J): (6-10% - ^)
- Cross-reactive T cell response [2]: 11 SFU
- Cross-reactive T cell response [3]: 8 SFU
- Cross-reactive T cell response (subject P, 11-17yrs): 12 SFU
- Significant response as a percentage of maximal peptide SFU (subject Q, 11-17yrs): ′′ (21-40% = ′′)
- Cross-reactive T cell response (subject Q, 11-17yrs): 20 SFU
- Significant response as a percentage of maximal peptide SFU (subject T, 11-17yrs): ′ (11-20% = ′)
- Cross-reactive T cell response (subject T, 11-17yrs): 16 SFU
- Cross-reactive T cell response (subject U, 11-17yrs): 9 SFU
- Cross-reactive T cell response [4]: 4 SFU
- Cross-reactive T cell response [5]: 4 SFU
- Cross-reactive T cell response [6]: 1 SFU
- Cross-reactive T cell response [7]: 3 SFU
- Cross-reactive T cell response (subject nine, 11-17yrs): 0 SFU
- Significant response as a percentage of maximal peptide SFU (subject seven): + (>70% = +)
- Cross-reactive T cell response [8]: 19 SFU
- Cross-reactive T cell response [9]: 2 SFU
- Cross-reactive T cell response [10]: 8 SFU
- Cross-reactive T cell response [11]: 6 SFU

Sequence: QPPFSEEQEQPLPQ [gluten peptide described by Vader et al, reference compound]
- positive polyclonal T cell response after wheat challenge, proportion (Example 5, 2/30): 6.7%
- polyclonal T cell responses following wheat challenge, volunteers (Example 6, 2/30): 6.7%

Sequence: QPFPQPEQPFPWQP
- IFN-γ ELISpot response (patient A, 11-17 yrs, cut-off 10 SFU): 3.5 SFU
- Significant response as percentage of maximal peptide SFU (patient D, max peptide 30.5 SFU): + (>70% = +)
- IFN-γ ELISpot response (patient E, H, 11-17 yrs, cut-off 10 SFU): 44 SFU
- Significant response as percentage of maximal peptide SFU (patient E, max peptide 224 SFU): ′ (11-20% = ′)
- IFN-γ ELISpot response (patient F, 11-17 yrs, cut-off 10 SFU): 84.5 SFU
- Significant response as percentage of maximal peptide SFU (patient F, max peptide 178 SFU): ′′′ (41-70% = ′′′)
- IFN-γ ELISpot response (patient G, 11-17 yrs, cut-off 10 SFU): 8 SFU
- IFN-γ ELISpot response (patient H (HLA-DQ2.5 homozygote), 3-5yrs, cut-off 10 SFU): 27.5 SFU
- IFN-γ ELISpot response (patient H, 11-17 yrs, cut-off 10 SFU): 8.5 SFU
- IFN-γ ELISpot response (patient ID not given, 11-17 yrs, cut-off 10 SFU): 67.5 SFU
- Significant response as percentage of maximal peptide SFU (patient ID not given, max peptide 95 SFU): + (>70% = +)
- Significant response as percentage of maximal peptide SFU (patient II, max peptide 15 SFU): + (>70% = +)
- Significant response as percentage of maximal peptide SFU (patient J, max peptide 196 SFU): ′′′ (41-70% = ′′′)
- Significant response as percentage of maximal peptide SFU (patient K, max peptide 53 SFU): ′′ (21-40% = ′′)
- Significant response as percentage of maximal peptide SFU (patient M, max peptide 48 SFU): ′′′ (41-70% = ′′′)
- IFN-γ ELISpot response (patient N, 3-5yrs, cut-off 10 SFU): 7 SFU
- IFN-γ ELISpot response (patient P, 11-17 yrs, cut-off 21.6 SFU): 20 SFU
- IFN-γ ELISpot response (patient Q, 11-17 yrs, cut-off 10 SFU): 63 SFU
- IFN-γ ELISpot response (patient U, H, 11-17 yrs, cut-off 10 SFU): 17 SFU
- Significant response as percentage of maximal peptide SFU (patient U, max peptide 81 SFU): ′′ (21-40% = ′′)
- IFN-γ ELISpot response (patient V, 6-10 yrs, cut-off 10 SFU): 25 SFU
- Significant response as percentage of maximal peptide SFU (patient V, max peptide 35 SFU): + (>70% = +)
- IFN-γ ELISpot response (patient Y, 6-10 yrs, cut-off 10 SFU): 10 SFU
- Significant response as percentage of maximal peptide SFU (patient Y, max peptide 16 SFU): ′′′ (41-70% = ′′′)
- Significant response as percentage of maximal peptide SFU (patient Z, max peptide 13 SFU): + (>70% = +)
- IFN-γ ELISpot response (patient eleven, 6-10 yrs, cut-off 10 SFU): 20.5 SFU
- Significant response as percentage of maximal peptide SFU (patient eleven, max peptide 57 SFU): ′′ (21-40% = ′′)
- Significant response as percentage of maximal peptide SFU (patient five, max peptide 48 SFU): + (>70% = +)
- IFN-γ ELISpot response (patient four, 3-5yrs, cut-off 10 SFU): 28.5 SFU
- Significant response as percentage of maximal peptide SFU (patient four, max peptide 44 SFU): ′′′ (41-70% = ′′′)
- IFN-γ ELISpot response (patient seven, 6-10 yrs, cut-off 10.5 SFU): 11 SFU
- Significant response as percentage of maximal peptide SFU (patient seven, max peptide 27 SFU): ′′′ (41-70% = ′′′)
- IFN-γ ELISpot response (patient six, 3-5yrs, cut-off 10 SFU): 10 SFU
- Significant response as percentage of maximal peptide SFU (patient six, max peptide 13 SFU): + (>70% = +)
- IFN-γ ELISpot response (patient ten, 3-5yrs, cut-off 10 SFU): 14.5 SFU
- Significant response as percentage of maximal peptide SFU (patient ten, max peptide 14.5 SFU): + (>70% = +)
- IFN-γ ELISpot response (patient three, 6-10 yrs, cut-off 10.5 SFU): 95 SFU
- IFN-γ ELISpot response (patient twelve, 11-17 yrs, cut-off 10 SFU): 30.5 SFU
- IFN-γ ELISpot response (patient two, 3-5yrs, cut-off 10 SFU): 52.5 SFU
- Significant response as percentage of maximal peptide SFU (patient two, max peptide 60 SFU): + (>70% = +)
- Cross-reactive T cell response (subject A, 11-17yrs): 15 SFU
- Significant response as a percentage of maximal peptide SFU (subject D, 11-17yrs): + (>70% = +)
- Cross-reactive T cell response (subject D, 11-17yrs): 30.5 SFU
- Significant response as a percentage of maximal peptide SFU (subject E, 11-17yrs): ′ (11-20% = ′)
- Cross-reactive T cell response (subject E, 11-17yrs): 44 SFU
- Significant response as a percentage of maximal peptide SFU (subject F, 11-17yrs): ′′′ (41-70% = ′′′)
- Cross-reactive T cell response (subject F, 11-17yrs): 845 SFU
- Cross-reactive T cell response (subject G, 11-17yrs): 8 SFU
- Cross-reactive T cell response (subject H): 8.5 SFU
- Cross-reactive T cell response [1]: 5.5 SFU
- Cross-reactive T cell response [2]: 95- SFU
- Significant response as a percentage of maximal peptide SFU (subject K): ′′ (21-40% = ′′)
- Cross-reactive T cell response [3]: 18.5 SFU
- Cross-reactive T cell response (subject P, 11-17yrs): 20 SFU
- Significant response as a percentage of maximal peptide SFU (subject Q, 11-17yrs): ′′′ (41-70% = ′′′)
- Cross-reactive T cell response (subject Q, 11-17yrs): 63 SFU
- Cross-reactive T cell response (subject T, 11-17yrs): 67.5 SFU
- Significant response as a percentage of maximal peptide SFU (subject U, 11-17yrs): ′′ (21-40% = ′′)
- Cross-reactive T cell response (subject U, 11-17yrs): 17 SFU
- Significant response as a percentage of maximal peptide SFU (subject V): + (>70% = +)
- Cross-reactive T cell response [4]: 25 SFU
- Cross-reactive T cell response [5]: 9 SFU
- Cross-reactive T cell response [6]: 10- SFU
- Significant response as a percentage of maximal peptide SFU (subject five): + (>70% = +)
- Cross-reactive T cell response [7]: 40.5 SFU
- Cross-reactive T cell response (subject nine, 11-17yrs): 15 SFU
- Significant response as a percentage of maximal peptide SFU (subject seven): ′′ (21-40% = ′′)
- Cross-reactive T cell response [8]: 11 SFU
- Significant response as a percentage of maximal peptide SFU (subject six): + (>70% = +)
- Cross-reactive T cell response [9]: 10 SFU
- Significant response as a percentage of maximal peptide SFU (subject ten): + (>70% = +)
- Cross-reactive T cell response [10]: 14.5 SFU
- Significant response as a percentage of maximal peptide SFU (subject two): + (>70% = +)
- Cross-reactive T cell response [11]: 52.5 SFU

Sequence: QPFPQPEQPFPQS
- Cross-reactive T cell response (subject A, 11-17yrs): 4 SFU
- Significant response as a percentage of maximal peptide SFU (subject D, 11-17yrs): ′′′ (41-70% = ′′′)
- Cross-reactive T cell response (subject D, 11-17yrs): 15 SFU
- Significant response as a percentage of maximal peptide SFU (subject E, 11-17yrs): ′′ (21-40% = ′′)
- Cross-reactive T cell response (subject E, 11-17yrs): 46 SFU
- Significant response as a percentage of maximal peptide SFU (subject F, 11-17yrs): ′ (11-20% = ′)
- Cross-reactive T cell response (subject F, 11-17yrs): 35 SFU
- Cross-reactive T cell response (subject G, 11-17yrs): 5 SFU
- Cross-reactive T cell response (subject H): 4 SFU
- Cross-reactive T cell response [1]: 2 SFU
- Significant response as a percentage of maximal peptide SFU (subject J): ′′ (21-40% = ′′)
- Cross-reactive T cell response [2]: 57 SFU
- Significant response as a percentage of maximal peptide SFU (subject K): ′′ (21-40% = ′′)
- Cross-reactive T cell response [3]: 18 SFU
- Cross-reactive T cell response (subject P, 11-17yrs): 13 SFU
- Significant response as a percentage of maximal peptide SFU (subject Q, 11-17yrs): ′′′ (41-70% = ′′′)
- Cross-reactive T cell response (subject Q, 11-17yrs): 55 SFU
- Significant response as a percentage of maximal peptide SFU (subject T, 11-17yrs): + (>70% = +)
- Cross-reactive T cell response (subject T, 11-17yrs): 70 SFU
- Significant response as a percentage of maximal peptide SFU (subject U, 11-17yrs): ′′ (21-40% = ′′)
- Cross-reactive T cell response (subject U, 11-17yrs): 27 SFU
- Significant response as a percentage of maximal peptide SFU (subject V): + (>70% = +)
- Cross-reactive T cell response [4]: 25 SFU
- Cross-reactive T cell response [5]: 6 SFU
- Cross-reactive T cell response [6]: 4 SFU
- Significant response as a percentage of maximal peptide SFU (subject five): ′′′ (41-70% = ′′′)
- Cross-reactive T cell response [7]: 32 SFU
- Cross-reactive T cell response (subject nine, 11-17yrs): 1 SFU
- Significant response as a percentage of maximal peptide SFU (subject seven): ′′′ (41-70% = ′′′)
- Cross-reactive T cell response [8]: 11 SFU
- Cross-reactive T cell response [9]: 7 SFU
- Significant response as a percentage of maximal peptide SFU (subject ten): + (>70% = +)
- Cross-reactive T cell response [10]: 12 SFU
- Significant response as a percentage of maximal peptide SFU (subject two): ′′′ (41-70% = ′′′)
- Cross-reactive T cell response [11]: 44 SFU

Source: US20170232083A1, “METHODS OF DIAGNOSIS AND TREATMENT OF CELIAC DISEASE IN CHILDREN” (priority 2014, published 2017)
